Experimental findings from patent US20240002326A1, “COMPOUNDS AND USE THEREOF IN METHODS OF TREATMENT” (The University of Queensland, priority 2016, published 2024) are described below.

“Also recorded” adds a separate entry of the source.

The target of one data set is SOX18-RBPJ interaction (Homo sapiens (Human), UniProt P35713). Kind of data set: ALPHAScreen SOX18-RBPJ protein-protein interaction. Type of data set: binding. The text has this:
Proteins were genetically encoded with enhanced GFP (GFP), mCherry and cMyc (myc) tags, and cloned into cell free expression Gateway destination vectors: N-terminal GFP tagged (pCellFree_G03), N-terminal Cherry-cMyc (pCellFree_G07) and C-terminal Cherry-cMyc tagged (pCellFree_G08) (Gagoski et al., 2015). Human RBPJ (BC020780) and MEF2C (BC026341) Open Reading Frames (ORFs) were sourced from the Human ORFeome collection, version 1.1 and 5.1, and the Human Orfeome collaboration OCAA collection (Open Biosystems), as previously described (Sierecki et al., 2013) and cloned at the ARVEC facility, UQ Diamantina Institute. The entry clones pDONOR223 or pENTR201 vectors were exchanged with the ccdB gene in the expression plasmid by LR recombination (Life Technologies, Australia). The full-length human SOX18 gene was synthesized and the transfer to vectors was realized using Gateway PCR cloning. Translation competent Leishmania tarentolae extract (LTE) was prepared as previously described (Kovtun et al., 2011, Mureev et al., 2009). Protein pairs were co-expressed by adding 30 nM of GFP template plasmid and 60 nM of Cherry template plasmid to LTE and incubating for 3 hours at 27° C.
ALPHAScreen was performed as previously described (Sierecki et al., 2014, Sierecki et al., 2013). […] Percentage of interaction was calculated as: (I_cpd/I_DMSO)×100 from 3 independent experiments.
(§1) ALPHAScreen was performed as previously described (Sierecki et al., 2014, Sierecki et al., 2013), using the cMyc detection kit and Proxiplate-384 Plus plates (PerkinElmer). The LTE lysate co-expressing the proteins of interest was diluted in buffer A (25 mM HEPES, 50 mM NaCl). For the assay, 12.5 μL (0.4 μg) of Anti-cMyc coated Acceptor Beads in buffer B (25 mM HEPES, 50 mM NaCl, 0.001% NP40, 0.001% casein) were aliquoted into each well. This was followed by the addition of 2 μL of diluted sample, at different concentration, and 2 μL of biotin labeled GFP-Nanotrap in buffer A. The plates were incubated for 45 min at room temperature, then adding 2 μL (0.4 μg) of streptavidin-coated Donor Beads diluted in buffer A, and incubation in the dark for 45 min at room temperature. The ALPHAScreen signal was measured on an Envision Plate Reader (PerkinElmer), using manufacturer's recommended settings (λexc=680/30 nm for 0.18 s, λem=570/100 nm after 37 ms). The resulting bell-shaped curve is an indication of a positive interaction, while a flat line reflects a lack of interaction between the proteins. The measurement of each protein pair was repeated in triplicate.
(§2) I is the highest signal level (top of the hook effect curve) and Ineg is the lowest (background) signal level. The signals were normalized to the Iref signal obtained for the strongest interaction. […] Percentage of interaction was calculated as: […]
The ALPHA-Screen Assay was performed as previously described (Sierecki et al. 2014), using the cMyc detection kit and Proxiplate-384 Plus plates (PerkinElmer). A serial dilution of each sample was measured. The LTE lysate co-expressing the proteins of interest was diluted in buffer A (25 mM HEPES, 50 mM NaCl). For the assay, 12.5 μL (0.4 μg) of Anti-cMyc coated Acceptor Beads in buffer B (25 mM HEPES, 50 mM NaCl, 0.001% NP40, casein) were aliquoted into each well. This was followed by the addition of 2 μL of diluted sample and 2 μL of biotin labeled GFP-Nanotrap in buffer A. The plate was incubated for 45 min at RT. Afterward, 2 μL (0.4 μg) of Streptavidin coated Donor Beads diluted in buffer A, were added, followed by incubation in the dark for 45 min at RT. The ALPHA-Screen signal was obtained on an Envision Multilabel Plate Reader (PerkinElmer), using the manufacturer's recommended settings (excitation: 680/30 nm for 0.18 s, emission: 570/100 nm after 37 ms). The resulting bell-shaped curve is an indication of a positive interaction, while a flat line reflects a lack of interaction between the proteins. […]

The target in the next data set is SOX18-SOX18 homodimer (Homo sapiens (Human), UniProt P35713). The data set can be described thus: ALPHAScreen SOX18-SOX18 homodimerization. Type of data set: binding. As to conditions: 5 uM. The procedure: as §1, §2
Chain of SOX18-SOX18 homodimer (P35713 whole entry): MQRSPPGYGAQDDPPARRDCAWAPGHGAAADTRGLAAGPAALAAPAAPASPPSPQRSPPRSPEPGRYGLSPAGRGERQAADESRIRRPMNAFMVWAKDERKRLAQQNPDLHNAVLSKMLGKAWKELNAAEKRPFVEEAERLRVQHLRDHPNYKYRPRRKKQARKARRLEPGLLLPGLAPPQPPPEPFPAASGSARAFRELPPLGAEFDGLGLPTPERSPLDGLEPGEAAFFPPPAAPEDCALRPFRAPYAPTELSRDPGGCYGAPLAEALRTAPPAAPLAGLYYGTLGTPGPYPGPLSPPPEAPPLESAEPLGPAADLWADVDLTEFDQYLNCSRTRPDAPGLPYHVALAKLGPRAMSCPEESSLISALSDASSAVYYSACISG
The ALPHA-Screen Assay was performed as previously described (Sierecki et al. 2014), using the cMyc detection kit and Proxiplate-384 Plus plates (PerkinElmer). A serial dilution of each sample was measured. The LTE lysate co-expressing the proteins of interest was diluted in buffer A (25 mM HEPES, 50 mM NaCl). For the assay, 12.5 μL (0.4 μg) of Anti-cMyc coated Acceptor Beads in buffer B (25 mM HEPES, 50 mM NaCl, 0.001% NP40, casein) were aliquoted into each well. This was followed by the addition of 2 μL of diluted sample and 2 μL of biotin labeled GFP-Nanotrap in buffer A. The plate was incubated for 45 min at RT. Afterward, 2 μL (0.4 μg) of Streptavidin coated Donor Beads diluted in buffer A, were added, followed by incubation in the dark for 45 min at RT. The ALPHA-Screen signal was obtained on an Envision Multilabel Plate Reader (PerkinElmer), using the manufacturer's recommended settings (excitation: 680/30 nm for 0.18 s, emission: 570/100 nm after 37 ms). The resulting bell-shaped curve is an indication of a positive interaction, while a flat line reflects a lack of interaction between the proteins. The measurement of each protein pair was repeated a minimum of three times using separate plates. The Binding Index was calculated as: BI=[(I−I_neg)/(I_ref−I_neg)]×100
For PPI disruption assay, protein pairs expressed in LTE were incubated for 1 h with 100 μM Sm4 or DMSO alone (0.7% DMSO final). 100 μM Sm4 or DMSO was also added to buffer B. PPI disruption was calculated as: (1−I_Sm4/I_DMSO)×100.
For IC50 determination, the assay was identical but a dilution range of Sm4 was used (0.3 to 300 μM). Percentage of interaction was calculated as: I_Sm4/1 DMSO×100. Data from at least 3 independent experiments were fitted in GraphPad Prism (RRID: SCR_007370) version 6.0 using 3-parameter non-linear regression.
(In general: Alpha assays give light when donor and acceptor beads are brought close together.)

Chain of SOX18-RBPJ interaction (P35713 whole entry): as above

By IC50 is commonly meant the midpoint of a concentration-inhibition curve. For the compound `O=C(O)c1ccccc1Nc1cccc(C(F)(F)F)c1` [Flufenamic acid, reference compound], the IC50 on SOX18-RBPJ interaction (ALPHAScreen, read-out: SOX18-RBPJ interaction disruption IC50) was approximately 444 µM.
In the case of `CCN(CC)C(=O)c1c(O)cc(O)cc1CCc1ccc2ccccc2c1` [Sm26, N,N,diethyl-2,4-hydroxy-6-(2-(naphthalen-2-yl)ethyl)benzamide], on SOX18-RBPJ interaction, the “SOX18-RBPJ protein-protein binding inhibition at 5 μM” value was “highly active; also recorded: moderately active”. Also, the “inhibitory activity in respect of SOX18-SOX18 homodimerization” value on SOX18-SOX18 homodimer is given as “some inhibitory activity”.
The matching figures for `COc1cc(C)cc(/C=C/c2ccc3ccccc3c2)c1C(=O)O` [Sm34, (E)-2-methoxy-4-methyl-6-(2-(naphthalen-2-yl)vinyl)benzoic acid]: “highly active” and “some inhibitory activity”.
The corresponding values for `Oc1cc(CCc2ccccc2)cc(O)c1O` [Sm40, 5-phenethylbenzene-1,2,3-triol] are “highly active” and “some inhibitory activity”.
